Source: a melting point compilation (Tetko et al.; mined from patent text by program, amines drawn as free bases though some values may be those of a salt)

Compound | melting point [°C]
COC(=O)C(=O)Cc1nc([N+](=O)[O-])cn1C | 186
CCCCCCCC[Si](C)(C)CCSCCNC(=O)n1cc(F)c(=O)[nH]c1=O | 60 to 61
OCCC1Cc2ccccc2C1O (stereo unspecified) | 80 to 82
O=C(CC(=O)c1ccc(F)cc1)c1ccc(F)cc1 | 70 to 72
CC(C)C(NC(=O)OC(C)(C)C)C(=O)NC(C(=O)OCC1OC(n2cc(C=CBr)c(=O)[nH]c2=O)CC1N=[N+]=[N-])C(C)C (stereo unspecified) | 95 to 97
C=CC1CC2C3CCC4=CC(=O)CCC4=C3C(c3ccc(-c4ccc(OC)nc4)cc3)CC2(C)C1C(=O)C1CC1 (stereo unspecified) | 197
COc1cccc2c1Cc1ccccc1C2(CCO)CCO | 164 to 167
CCOC(=O)N1CCSC1COc1ccccc1OC (single isomer, unassigned; (-)) | 64 to 65
COC(=O)c1ccc(S(C)(=O)=O)c(COC(C)=O)c1Cl | 165 to 168
Cc1cc2c(cc1C)C(c1ccccc1)(C(F)(F)C(F)(F)F)c1cc3c(cc1O2)Oc1cc(C)c(C)cc1C3(c1ccccc1)C(F)(F)C(F)(F)F (stereo unspecified) | 228 to 233
CS(=O)(=O)c1ccc(-c2cnn(-c3ccc(F)cc3)c(=O)c2COc2cccc(F)c2)cc1 | 142 to 144
CN1CCc2c(c3ccccc3n2CCC#N)C1 | 108 to 110
CCOc1ccc(C2(c3ccc(OC)cc3)CC2(Cl)Cl)cc1 (stereo unspecified) | 114 to 117
COc1ccccc1P(CC(CCCCCCO)CP(c1ccccc1OC)c1ccccc1OC)c1ccccc1OC | 47 to 50
CC(C)(C)OC(=O)NC(Cc1ccccc1)C(O)CNCC(O)C(Cc1ccc(OCc2ccccc2)cc1)NC(=O)OCc1ccccc1 (stereo unspecified) | 154 to 156
O=C(/C=C/c1ccccc1I)NCCO | 130 to 132
CCc1ncc([N+](=O)[O-])n1CCS(=O)(=O)CC | 130 to 140
Cc1ccc(C23CC4CC(C2)CC(c2ccc(C)cc2)(C4)C3)cc1 | 145 to 146
O=Cc1ccc2c(c1)CCC(C(=O)O)C2 (stereo unspecified) | 205 to 212
Cn1cc(C(F)(F)F)c(CS(=O)(=O)C2=NOC(C)(C)C2)n1 | 125 to 126
CC(C)C(=O)Nc1nc(CN2CCN(C(c3ccccc3)c3ccccc3)CC2)cs1 | 132 to 140
CCCCC(Cc1cc(C(C)(C)C)c(O)c(C(C)(C)C)c1)(C(=O)OC1CC(C)(C)N(OC)C(C)(C)C1)C(=O)OC1CC(C)(C)N(OC)C(C)(C)C1 | 111 to 113
COc1cc(C=O)c(OC)c2ccccc12 | 120 to 123
CCn1ncc(-c2ccc3c(c2)c(C2CCN(CCN4CCNC4=O)CC2)cn3-c2ccc(F)cc2)n1 | 173 to 175
Cc1c(OCC(F)(F)F)ccnc1CS(=O)c1nc2ccccc2n1S(=O)(=O)c1ccc(OCC(=O)Nc2ccccn2)cc1 (stereo unspecified) | 78 to 81

Compound | melting point [°C]
Cc1coc(N2CCCC2=O)n1 | 116
O=S1(=O)NCN(C2CC2)c2c1ccc(F)c2F | 160 to 162
COc1ccc(C(O)(c2ccc(C(C)C)cc2)C(C)C)c(OC)c1 (stereo unspecified) | 80 to 81
O=C1CN=C(C2CCCCC2)c2cc(Cl)ccc2N1 | 210
CN(C)CCOc1cc(C(=O)N2CCC(N(C)CCc3ccccc3)CC2)ccc1-n1cncn1 | 83 to 85
CN1CCC(NNC(=O)c2ccccc2)CC1 | 149 to 150
CCCCCCCCCCCCCCCCCCNc1nc(NCC(O)C2CC(C)(C)NC(C)(C)C2)nc(NCC(O)C2CC(C)(C)NC(C)(C)C2)n1 (stereo unspecified) | 104 to 107
c1ccc(OCc2nnn[nH]2)cc1 | 128 to 131
Cc1[nH]cnc1CCNC(=NCCCOc1cccc(CN2CCCCC2)c1)NC(=O)c1ccccc1 | 118 to 120
Cn1ccnc1N1CCN(c2ccc([N+](=O)[O-])cc2)CC1 | 193 to 194
OC1(Cc2ccccc2F)CCN(Cc2ccccc2)C1 (stereo unspecified) | 75 to 77
N#CCCNC(=O)C1=CC(CF)(CF)Oc2ccc(C(F)(F)C(F)(F)C(F)(F)C(F)(F)F)cc21 | 85 to 86
CC(C)c1cc(OCC(=O)N(Cc2ccccc2)Cc2ccccc2)cc2c1C(=O)N(COC(=O)c1c(Cl)cccc1Cl)S2(=O)=O | 110 to 112
C=CCN1CCC2(CC1)c1ccccc1C(=O)c1c(OC)cccc12 | 115 to 117
Cc1cc2c(cc1C(C)SCC(N)=O)OCO2 (stereo unspecified) | 121 to 122
CC(C)(C)c1cc(Nc2ccccc2C#N)cc(C(C)(C)C)c1O | 172
N#Cc1ccc2c3ccc(C#N)c4c(C#N)ccc(c5ccc(Br)c1c52)c43 | 235 to 237
NCc1nnc(-c2ncn3c2[C@@H]2CCN2C(=O)c2sccc2-3)o1 | 233 to 235
CCCc1nc2cc3c(cc2[nH]1)NC(=O)C3(C)C | 284 to 285
CCCCCCNC(=O)c1ccccc1I | 104 to 105
COc1ccc(C(C[N+](=O)[O-])SC(=S)N(C)C)cc1OC (stereo unspecified) | 108 to 110
N#Cc1c(Cl)ccnc1Cl | 107 to 109
CC(=O)NC1CSC(=S)N(c2cccc(F)c2)C1=O (stereo unspecified) | 176 to 177
C[C@@H](Cc1c2n(c3ccc(O)cc13)CCC2)NC(=O)OC(C)(C)C | 135 to 136
Cc1nc(N)c2nc(C)n(CCNS(C)(=O)=O)c2c1C | > 250

Other lines, results leading:

melting point [°C] | Compound
172 to 173 | COc1c(Cl)ccc(-c2nc(N)c(Cl)c(C(=O)O)n2)c1F
171 to 172 | COc1cc(Nc2nccc(-c3ccc(CO)cc3)n2)cc(OC)c1OC
148 to 150 | COc1ccc2c(c1)CN(C(=O)CN1CCCC1)N=C2Cc1c(Cl)cncc1Cl
70 to 73 | O=C(c1cccc(F)c1)N1CC2CC2(c2ccc(Cl)cc2)C1 (stereo unspecified)
118 to 120 | CCOC(=O)Cc1cc(Br)c(C(=O)c2ccc(Cl)cc2)n1C
118 | CON(C)C(=O)c1cc(N)c(F)cc1Cl
159 to 162 | CCOC(=O)Nc1ccc(C(=O)OC)cc1
136 to 138 | COC(=O)CCCc1cc2cc(Cl)ccc2n1S(=O)(=O)c1ccc2sc(C)nc2c1
204 to 205 | CCCCc1nc2c(N)nc3ccccc3c2n1CCCNC(=O)c1cc2ccccc2cn1
118 | CCOC(=O)c1c(Cl)c2cc(F)ccc2n(Cc2ccccc2)c1=O
142 | COC(=O)CCCNC1(c2ccccc2Cl)C(=O)Nc2ccc(Cl)cc21 (stereo unspecified)
> 255 | CCc1nc2c(N)nc3cccnc3c2n1CC1(O)CCN(S(C)(=O)=O)CC1
110 to 112 | Cc1nc(N2CCN(Cc3ccc4nonc4c3)C2=O)sc1C(=O)NCc1cccnc1
110 | COc1ccc2c(c1)c(CCc1cc(=O)n(C3CCCCC3)[nH]1)c(C)n2C(=O)c1ccc(Cl)cc1
> 330 | O=C1Cc2c([nH]c3cc(Cl)cc(Cl)c23)-c2ncccc2N1
265 to 268 | Cc1nc(-c2sc(-c3ccc(Cl)cc3)nc2C)sc1C(=O)O
65 to 66.5 | CN(Cc1ccc(Cl)cc1)C(=O)C12CC3CC(CC(C3)C1)C2
186 | CC(C)N1CCC(Nc2nc3cncnc3n2Cc2ccc(F)cc2)CC1
246 to 250 | CC(=O)Nc1c(C(=O)c2cccc([N+](=O)[O-])c2)[nH]c2cc(Cl)ccc12
288 to 290 | CCOC(=O)C1(C)C(=O)Nc2cc3[nH]c(-c4cnccn4)nc3cc21 (stereo unspecified)
97 to 100 | CC(=O)C(C)n1nc(C(=O)NC2CN(C)CCN(Cc3ccccc3)C2)c2ccccc21 (stereo unspecified)
216 to 217 | COc1cc(C(=O)O)ccc1Cc1nn(C)c2ccc(NC(=O)OC3CCCC3)cc12
130 to 132 | O=C(O)C=CC(=O)c1ccc(F)cc1

melting point [°C] | Compound
147 to 151 | O=C([C@@H]1CCCN1S(=O)(=O)c1ccc2ccccc2c1)N1C[C@@H](c2ccc(Cl)cc2)Sc2ccccc21
206 to 208 | O=C(O)COC1c2ccccc2COc2ccc(/C=C/c3ccc4cc(F)c(F)cc4n3)cc21 (stereo unspecified)
254 to 256 | Cc1c(F)cccc1C(=O)Nc1ccc(C(=O)N2Cc3ccccc3Cc3ccccc32)cc1Cl
142 to 143 | CCOC(=O)c1c(CC)nn2c(-c3cccc(C(F)(F)F)c3)ccnc12
181 to 182 | CCOC(=O)c1ccc(NC(=O)NCCn2c(C)ccc2C)cc1
155 to 165 | CCOC(Nc1ccc(C(=O)O)cc1)C(=O)c1ccc(Oc2ccc(Cl)c3ccccc23)cc1 (stereo unspecified)
150 to 160 | COc1ccc(-c2cc(N3CCN(C(=O)c4cc(S(N)(=O)=O)c(Cl)cc4Cl)CC3)nc(C)n2)cc1OC
> 225 | Cc1sc2c(Br)c3ccccc3c(-c3cc(C(C)C)c(OS(=O)(=O)c4ccc(C(=O)O)c(O)c4)c(C(C)C)c3)c2c1C
128 to 130 | COCCn1c(C)nc2cnc3ccccc3c21
223 to 225 | O=c1[nH]c(=Cc2ccc(OCc3ccccc3)cn2)c(=O)[nH]c1=Cc1ccccc1
185 to 187 | COc1ccc(-c2ccc3ccc(NC(=O)c4ccccc4)nc3n2)cc1
82 to 84 | Clc1ccc(Oc2ccccc2Oc2ccc(Cl)cn2)nc1
215 to 217 | CCc1nc2cc(/C=C/C(=O)NO)ccc2c(=O)n1CCc1ccc(OC)cc1
166 to 168 | CCCCCc1cc(-c2cc(=O)c3c(O)cc(O)cc3o2)ccc1OC
193 to 196 | CCCn1c(COC)nc2c(N)nc3ccc(OCCCN4CCOCC4)cc3c21
255 to 256 | CC1(C)OC(=O)Nc2ccc(-c3ccc(F)c(C#N)c3)cc21
164 to 166 | Cc1cc(Cl)cc(NC(=O)Cc2ccc(OC3(C(=O)O)CCC(C)C3)cc2)c1 (stereo unspecified)
125 to 126 | CCOC(=O)c1cn(Cc2ccccc2)nc1NC(=O)N(C)C
> 300 | N#Cc1ccc(-c2nccc3[nH]c(=O)ccc23)cc1
111 to 112 | CCOC(=O)C1CCC(c2ccc(Cl)cc2)n2c(=O)n(CCCl)c(=O)n21 (stereo unspecified)
104 to 105 | CCN1c2ncc(CCc3cccc(N=[N+]=[N-])c3)cc2C(=O)N(C)c2ccc(Cl)nc21
132 to 133 | CCCC(=O)c1cnc2c(OC)cccc2c1Nc1sccc1C
250 to 254 | Cc1[nH]c(=O)[nH]c1C(=O)c1ccccc1
